Assay results taken from US4473544A, “Radio-iodine-labelled omega phenyl fatty acids” (priority 1979, dated 1984).

Key:
[1] = Renal excretion and extracellular distribution of beta-oxidation degradation products; type: in vivo; settings: products of beta-oxidation of radio-iodine-labelled phenyl fatty acids
Text: We have now discovered radio-iodine-labelled omega-phenyl fatty acids, particularly p-I123 -omega-phenyl pentadecanoic acid and its use, to image body organs such as the heart and liver. Through the use of these novel agents, the disadvantages associated with the use of omega-iodine fatty acids, e.g., injecting radioactive iodide as an internal standard and making the necessary corrections, can be completely avoided.
On degradation via beta-oxidation of the iodinated phenyl fatty acid of the invention, the radioactive residue produced is not iodide, but rather iodinated benzoic or iodinated phenylacetic acid. […] Tests in mice have proven that the residual activity in the blood is 2% of the injected dose per gram of blood.

[2] = stated as known; cited from earlier work

iodophenylacetic acid
distribution throughout the extracellular fluid [1]: does not occur
excretion by the kidneys [1]: rapidly and quantitatively excreted by the kidneys
excretion from the body via the kidneys [2]: rapidly excreted from the body via the kidneys
